Species: Rattus norvegicus
Test: Open TG-GATES - Regimen: Daily Repeat
Type: toxicity, organism-based, Sprague-Dawley
Set-up: regimen Daily Repeat, gender Male, age 6 weeks
Conditions: in vivo, po, 400 mg/kg, route gavage, dose level High; for KIDNEY_L / KIDNEY_R / KIDNEY_TOTAL: tissue Kidney; for LIVER: tissue Liver; for ALP / ALT / AST / BUN / CRE / Ca / DBIL / IP / K / LDH / Na / PL / RALB / TBIL / TC / TG / TP / gamma-GTP: tissue Plasma

For CCC(C)(C)C(=O)O[C@H]1C[C@@H](C)C=C2C=C[C@H](C)[C@H](CC[C@@H]3C[C@@H](O)CC(=O)O3)[C@H]21 [SIMVASTATIN], the Lym (72 h, tissue Blood, time 3 day) was 72.4%, the MCHC (72 h, tissue Blood, time 3 day) was 33.3% and the Mono (72 h, tissue Blood, time 3 day) was 5.8%. The Neu (72 h, tissue Blood, time 3 day) was 20.6%, the PT (72 h, tissue Blood, time 3 day) was 15.6 s and the Plat (72 h, tissue Blood, time 3 day) was 126.8 x10_4/uL. For the same compound, the RBC (72 h, tissue Blood, time 3 day) was 699.4 x10_4/ul, the Ret (72 h, tissue Blood, time 3 day) was 2.6% and the WBC (72 h, tissue Blood, time 3 day) was 96.5 x10_2/uL. The KIDNEY_L (72 h, time 3 day) was 0.9 g, the KIDNEY_R (72 h, time 3 day) was 0.9 g and the KIDNEY_TOTAL (72 h, time 3 day) was 1.8 g. For the same compound, the LIVER (72 h, time 3 day) was 9.1 g, the ALP (72 h, time 3 day) was 613.8 IU/L and the ALT (72 h, time 3 day) was 173.4 IU/L. It also gave an AST (72 h, time 3 day) of 134 IU/L, a BUN (72 h, time 3 day) of 15 mg/dL and a CRE (72 h, time 3 day) of 0.5 mg/dL. The Ca (72 h, time 3 day) was 10 mg/dL, the DBIL (72 h, time 3 day) was 0.012 mg/dL and the IP (72 h, time 3 day) was 6.9 mg/dL. The K (72 h, time 3 day) was 5 meq/L, the LDH (72 h, time 3 day) was 155.8 IU/L and the Na (72 h, time 3 day) was 137.2 meq/L. For the same compound, the PL (72 h, time 3 day) was 82.2 mg/dL, the RALB (72 h, time 3 day) was 4 g/dL and the TBIL (72 h, time 3 day) was 0.4 mg/dL. The TC (72 h, time 3 day) was 51.4 mg/dL, the TG (72 h, time 3 day) was 17.6 mg/dL and the TP (72 h, time 3 day) was 5.3 g/dL. For the same compound, the gamma-GTP (72 h, time 3 day) was 1.6 IU/L, the TERMINAL_BW ([…], time 7 day) was 208 g and the TERMINAL_BW ([…], time 14 day) was 268.6 g. The TERMINAL_BW ([…], time 28 day) was 365.2 g, the Bas ([…], tissue Blood, time 7 day) was 0% and the Eos ([…], tissue Blood, time 7 day) was 1%. The Fbg ([…], tissue Blood, time 7 day) was 212.2 mg/dL, the Hb ([…], tissue Blood, time 7 day) was 13.7 g/dL and the Ht ([…], tissue Blood, time 7 day) was 41.7%. For the same compound, the Lym ([…], tissue Blood, time 7 day) was 78%, the MCHC ([…], tissue Blood, time 7 day) was 32.8% and the Mono ([…], tissue Blood, time 7 day) was 7.5%. For the same compound, the Neu ([…], tissue Blood, time 7 day) was 13.5%, the PT ([…], tissue Blood, time 7 day) was 12.8 s and the Plat ([…], tissue Blood, time 7 day) was 138.7 x10_4/uL. It also gave an RBC ([…], tissue Blood, time 7 day) of 658.2 x10_4/ul, a Ret ([…], tissue Blood, time 7 day) of 3.4% and a WBC ([…], tissue Blood, time 7 day) of 98.8 x10_2/uL. It also gave a Bas ([…], tissue Blood, time 14 day) of 0%, an Eos ([…], tissue Blood, time 14 day) of 1% and a Fbg ([…], tissue Blood, time 14 day) of 255.2 mg/dL. It also gave a Hb ([…], tissue Blood, time 14 day) of 13.5 g/dL, a Ht ([…], tissue Blood, time 14 day) of 40.7% and a Lym ([…], tissue Blood, time 14 day) of 72.8%. The MCHC ([…], tissue Blood, time 14 day) was 33.1%, the Mono ([…], tissue Blood, time 14 day) was 9.5% and the Neu ([…], tissue Blood, time 14 day) was 17.2%. For the same compound, the PT ([…], tissue Blood, time 14 day) was 12.1 s, the Plat ([…], tissue Blood, time 14 day) was 148 x10_4/uL and the RBC ([…], tissue Blood, time 14 day) was 673.5 x10_4/ul. The Ret ([…], tissue Blood, time 14 day) was 8.1%, the WBC ([…], tissue Blood, time 14 day) was 114.1 x10_2/uL and the Bas ([…], tissue Blood, time 28 day) was 0%. The Eos ([…], tissue Blood, time 28 day) was 1%, the Fbg ([…], tissue Blood, time 28 day) was 234.2 mg/dL and the Hb ([…], tissue Blood, time 28 day) was 14.6 g/dL. The Ht ([…], tissue Blood, time 28 day) was 44%, the Lym ([…], tissue Blood, time 28 day) was 80.2% and the MCHC ([…], tissue Blood, time 28 day) was 33.1%. It also gave an MCV ([…], tissue Blood, time 28 day) of 58.5 fL, a Mono ([…], tissue Blood, time 28 day) of 5.6% and a Neu ([…], tissue Blood, time 28 day) of 13.8%. For the same compound, the PT ([…], tissue Blood, time 28 day) was 13 s, the Plat ([…], tissue Blood, time 28 day) was 130.1 x10_4/uL and the RBC ([…], tissue Blood, time 28 day) was 753.2 x10_4/ul. It also gave a Ret ([…], tissue Blood, time 28 day) of 3%, a WBC ([…], tissue Blood, time 28 day) of 117.8 x10_2/uL and a KIDNEY_L ([…], time 7 day) of 1 g. It also gave a KIDNEY_R ([…], time 7 day) of 1 g, a KIDNEY_TOTAL ([…], time 7 day) of 1.9 g and a KIDNEY_L ([…], time 14 day) of 1.2 g. It also gave a KIDNEY_R ([…], time 14 day) of 1.2 g, a KIDNEY_TOTAL ([…], time 14 day) of 2.4 g and a KIDNEY_L ([…], time 28 day) of 1.3 g. It also gave a KIDNEY_R ([…], time 28 day) of 1.4 g, a KIDNEY_TOTAL ([…], time 28 day) of 2.7 g and an LIVER ([…], time 7 day) of 12.1 g. The LIVER ([…], time 14 day) was 16 g, the LIVER ([…], time 28 day) was 20.6 g and the ALP ([…], time 7 day) was 693.8 IU/L. It also gave an ALT ([…], time 7 day) of 96.2 IU/L, an AST ([…], time 7 day) of 100.2 IU/L and a BUN ([…], time 7 day) of 21 mg/dL. For the same compound, the CRE ([…], time 7 day) was 0.6 mg/dL, the Ca ([…], time 7 day) was 11.3 mg/dL and the DBIL ([…], time 7 day) was 0.025 mg/dL. The IP ([…], time 7 day) was 6.2 mg/dL, the K ([…], time 7 day) was 4.7 meq/L and the LDH ([…], time 7 day) was 136 IU/L. The Na ([…], time 7 day) was 141.2 meq/L, the PL ([…], time 7 day) was 116.8 mg/dL and the RALB ([…], time 7 day) was 4.1 g/dL. It also gave a TBIL ([…], time 7 day) of 0.3 mg/dL, a TC ([…], time 7 day) of 67.5 mg/dL and a TG ([…], time 7 day) of 36.8 mg/dL. For the same compound, the TP ([…], time 7 day) was 5.9 g/dL, the gamma-GTP ([…], time 7 day) was 1.2 IU/L and the ALP ([…], time 14 day) was 717.5 IU/L. For the same compound, the ALT ([…], time 14 day) was 100.5 IU/L, the AST ([…], time 14 day) was 275.8 IU/L and the BUN ([…], time 14 day) was 19.2 mg/dL. It also gave a CRE ([…], time 14 day) of 0.6 mg/dL, a Ca ([…], time 14 day) of 10.8 mg/dL and a DBIL ([…], time 14 day) of 0.0075 mg/dL. For the same compound, the IP ([…], time 14 day) was 6.7 mg/dL, the K ([…], time 14 day) was 4.2 meq/L and the LDH ([…], time 14 day) was 121.2 IU/L. For the same compound, the Na ([…], time 14 day) was 140 meq/L, the PL ([…], time 14 day) was 115 mg/dL and the RALB ([…], time 14 day) was 3.7 g/dL. For the same compound, the TBIL ([…], time 14 day) was 0.3 mg/dL, the TC ([…], time 14 day) was 66.5 mg/dL and the TG ([…], time 14 day) was 60.5 mg/dL. It also gave a TP ([…], time 14 day) of 5.5 g/dL, a gamma-GTP ([…], time 14 day) of 2.2 IU/L and an ALP ([…], time 28 day) of 691.8 IU/L. It also gave an ALT ([…], time 28 day) of 55 IU/L, an AST ([…], time 28 day) of 71.6 IU/L and a BUN ([…], time 28 day) of 23.6 mg/dL. For the same compound, the CRE ([…], time 28 day) was 0.6 mg/dL, the Ca ([…], time 28 day) was 10.9 mg/dL and the DBIL ([…], time 28 day) was 0.018 mg/dL. It also gave an IP ([…], time 28 day) of 5.6 mg/dL, a K ([…], time 28 day) of 4.4 meq/L and an LDH ([…], time 28 day) of 132 IU/L. It also gave a Na ([…], time 28 day) of 142.6 meq/L, a PL ([…], time 28 day) of 116.2 mg/dL and an RALB ([…], time 28 day) of 4.1 g/dL. The TBIL ([…], time 28 day) was 0.3 mg/dL, the TC ([…], time 28 day) was 57.6 mg/dL and the TG ([…], time 28 day) was 85.4 mg/dL. It also gave a TP ([…], time 28 day) of 6.1 g/dL and a gamma-GTP ([…], time 28 day) of 1.2 IU/L.
